# Experimental data from patent US10583131B2, “Methods of treating pancreatic cancer” (ChemoCentryx, Inc., priority 2016, dated 2020).
# Experiments:
# [1] = system: non-resectable pancreatic adenocarcinoma; assay: Open-label Phase Ib clinical trial of compound Ib plus FOLFIRINOX, response by RECIST 1.1; format: in vivo, patients; conditions: for Tumor control rate: 12 weeks of treatment, 150 mg twice daily plus FOLFIRINOX; for Progressive disease / Stable disease / Overall response rate: 12 weeks, plus FOLFIRINOX; for Overall response rate: RECIST 1.1, all partial responses
# Description: Fifty-four patients age 18 years or older were enrolled on an open-label phase 1-b interventional study to evaluate the safety and efficacy of compound Ib in patients with pancreatic adenocarcinoma also receiving FOLFIRINOX chemotherapy. Dosing consisted of 150 mg tablets for oral administration once or twice daily given orally for at least 12 weeks.
# Inclusion criteria included: • Histologically or cytologically confirmed non-resectable pancreatic adenocarcinoma with or without metastases • Eastern Cooperative Oncology Group (ECOG) performance status score ≤2 • Anticipated life expectancy a ≥12 weeks • Radiographically measurable disease acc. to RECIST 1.1 • Use of adequate contraception (as described in protocol) • Ability to provide written informed consent and comply with study requirements.
# Exclusion criteria included: • Received other cancer treatment or investigational drug within 4 weeks prior to screening • Women who are pregnant or breastfeeding • Had major surgery within 4 weeks of first dose of study drug • Inadequate liver, renal or bone marrow function within 2 weeks of first dose • Serious concurrent illness, altered medical status or any uncontrolled medical condition • Any infection requiring antibiotic or anti-viral treatment within 4 weeks of screening • Known active HIV, HBV or HCV infection • Inability to swallow tablets • History or presence of any medical condition or disease which, in the opinion of the investigator, may place the subject at unacceptable risk for study participation. Initial 12 week overall response rate (ORR) results:
# The open-label, multi-center, Phase Ib clinical trial was designed to evaluate the safety and efficacy of orally administered compound Ib plus FOLFIRINOX in 50 patients with non-resectable pancreatic cancer. Patients received 150 mg of compound Ib twice daily for 12 weeks. After 12 weeks, patients who achieved stable disease or better (as measured by Response Evaluation Criteria In Solid Tumors, or RECIST 1.1), were eligible to continue on study for at least an additional 12 weeks unless disease progression occured. Per protocol, the Eastern Cooperative Oncology Group (ECOG) performance status of patients in the trial was 0, 1 or 2.
# Patients enrolled in the study had advanced non-resectable pancreatic cancer (78% of patients having metastatic disease), and an Eastern Cooperative Oncology Group (ECOG) Performance Status score of less than or equal to 2. In order to assess the initial treatment effect of compound Ib, the study provided for assessment of overall response rate (ORR) based on computerized tomography (CT) imaging following 12 weeks of treatment.
# The pre-specified evaluable ORR population consists of all patients who have at least one post-baseline disease CT assessment. Response rate results at 12 weeks of treatment were as follows: […]
# [2] = Pharmacokinetics in Sprague-Dawley rats (i.v. and oral); format: in vivo; conditions: for clearance / bioavailability / AUC: rat, plasma; for clearance: iv, 0.5 mg/kg; for bioavailability: po 2 mg/kg, iv 0.5 mg/kg; for AUC: po, 2 mg/kg
# Description: Compound Ib and PF-04136309 were dosed intravenously at 0.5 mg/kg and orally at 2 mg/kg, in aqueous hydroxypropyl methylcellulose. Blood samples were collected at predetermined time points after each dosing and the corresponding plasma concentrations of Compound Ib and PF-04136309 were analyzed using an LC-MS/MS method. Plasma concentration-time curves were constructed and the corresponding pharmacokinetic parameters were derived using non-compartmental analysis.
# Blood (0.2 mL) was sampled through the jugular vein or cardiac puncture (for terminal point only) at pre-dose, 2, 5, 10, 15, and 30 min, 1, 2, 4, 6, and 8 hours post-dose for i.v. dosing and at pre-dose, 5, 15, and 30 min, 1, 1.5, 2, 4, 6, and 8 hours post-dose for oral dosing. Blood samples were collected into chilled polypropylene tubes containing sodium EDTA as the anticoagulant and plasma was collected through centrifugation (Eppendorf Centrifuge 5417R) at 10,000 rpm and 4° C. for 6 minutes and stored at −20° C. until analysis.
# (§1) Plasma samples (50 μL) were extracted with 200 μL acetonitrile containing the internal standard on a linear shaker for 10 min and then centrifuged at 3700 g for 10 min at 4° C. (Allegra X-15R centrifuge, Beckman Coulter, Inc., Fullerton, Calif.). 100 μL of the resulting supernatant was transferred into a new plate and mixed with 100 μL 0.1% formic acid in water for LC-MS/MS analysis.
# (§2) Calibration standard samples were prepared with blank Sprague-Dawley rat plasma, at 5000, 2500, 1000, 500, 100, 50, 20, 10, 4, 2 and 1 ng/mL of compound. Three levels of the standard stock solutions (1000, 100 and 10 ng/mL) were spiked separately into male Sprague-Dawley rat plasma and used as QC samples. Plasma standards and QC samples were treated identically and prepared in parallel with the plasma samples. Extracted samples were analyzed by LC-MS/MS.
# Mass spectrometer acquisition and integration were performed with Applied Biosystems-Sciex Analyst software (version 1.4.2). The calibration curve was obtained through a quadratic regression and the calibration range was 2-5000 ng/mL.
# (§3) Instrument: • API 3000 mass spectrometer (Applied Biosystems, Foster City, Calif.) • Agilent 1100 HPLC binary pump (Santa Clara, Calif.) • LEAP Technologies HTS Pal Autosampler (Carrboro, N.C.) • Thermo Scientific Cohesive Aria LX-2 duplexing system (Waltham, Mass.) Column: Zorbax Eclipse XDB Phenyl 2.1×50 mm (Agilent, Santa Clara, Calif.) Injection Volume: 10 μL Flow Rate: 0.60 mL/min
# Ionization Mode: Electrospray (ESI). Detection Mode: Positive MRM. For each dosing route, descriptive pharmacokinetic parameters were determined by a standard non-compartmental analysis (Wagner, 1993) from the plasma concentration-time curve. Pharmacokinetic analysis was performed by using XLFit® v.4.3.1 (ID Business Solutions Inc., Alameda, Calif.) in conjunction with Microsoft Excel 2003.
# [3] = Pharmacokinetics of compound Ib in male beagle dogs (i.v. and oral); format: in vivo; conditions: Dog
# Description: The pharmacokinetic profile of compound Ib was evaluated in male beagle dogs following intravenous (i.v.) and oral (p.o.) administration. A single dose of compound Ib was dosed intravenously at 0.5 mg/kg and orally at 2 mg/kg. Blood samples were collected at predetermined time points after each dosing and the corresponding plasma samples were analyzed using an LC-MS/MS method. Plasma concentration-time curves were constructed using the plasma concentrations and the corresponding pharmacokinetic parameters were derived by non-compartmental analysis.
# Six animals weighing 11.5, 9.9, 9.9, 14.6, 11.1, and 9.8 kg, respectively, were used with Compound Ib dosed intravenously at 0.5 mg/kg (the first 3 animals) and orally at 2 mg/kg (the second 3 animals).
# For i.v. dosing, a solution formulation of Compound Ib was prepared in 36.8% water/31.6% propylene glycol/31.6% N,N-dimethyl acetamide at 0.5 mg/mL and each animal received 1 mL/kg. For oral dosing at 2 mg/kg, a solution formulation was prepared in 1% hydroxypropyl methylcellulose at 0.5 mg/mL and each animal received 4 mL/kg.
# For dosing, blood (˜1 mL) was drawn at pre-dose and at 5, 15, and 30 min, 1, 2, 4, 8, 12, and 24 hours post-dose. Blood was sampled from the foreleg vein via butterfly catheter and then placed into chilled polypropylene tubes containing K2EDTA as the anticoagulant and kept on ice until centrifugation. Plasma was collected through centrifugation and shipped on dry ice for sample analysis.
# as §1, with “0.1% formic acid/acetonitrile” for “acetonitrile”
# as §2, with “blank dog” for “blank Sprague-Dawley rat”, “of Compound Ib.” for “of compound.”, “male beagle dog” for “male Sprague-Dawley rat”, “samples.” for “samples. Extracted samples were analyzed by LC-MS/MS.”
# Sample analysis was performed by LC-MS/MS (details shown below). Acquisition and peak integration were performed with the Applied Biosystems-Sciex Analyst software (version 1.4.2). Calibration curves were obtained through quadratic regression with a weighting of 1/x. The calibration range was 1-5000 ng/mL.
# as §3, with “Instrument: • Applied Biosystems API 3000” for “Instrument: • API 3000”, “mass spectrometer (Foster City, Calif.)” for “mass spectrometer (Applied Biosystems, Foster City, Calif.)”
# Ionization Mode: Turbo Ionspray ESI Detection Mode: Positive MRM For each dosing route, descriptive pharmacokinetic parameters were determined by a standard non-compartmental analysis (Wagner, 1993) from the plasma concentration-time curve. • CL: Total body clearance • AUC: area under the curve • F: Bioavailability.
# Pharmacokinetic analysis was performed by using XLFit® v.4.3.1 (ID Business Solutions Inc., Alameda, Calif.) in conjunction with Microsoft Excel 2003.
# [4] = ITT Patient Population (N = 50)
# [5] = Pre-Specified Evaluable Patient Population (N = 41)
# [6] = male, beagle, plasma, po, mean, N = 3, dosed at 2 mg/kg
Clearance compared to PF-4136309 [2],Exposure (AUC) compared to PF-4136309 [2],clearance [2],bioavailability [2],AUC [2],Clearance compared to PF-4136309 ([3]; at comparable doses),Exposure (AUC) compared to PF-4136309 ([3]; at comparable doses),"clearance ([3]; male, beagle, plasma, iv, mean, N = 3, dosed at 0.5 mg/kg)","AUC [3, 6]","bioavailability [3, 6]",SMILES,"Tumor control rate [1, 4]","Tumor control rate ([1]; Pre-Specified Evaluable Patient Population (N = 41), includes stable disease, partial response and complete response)","Progressive disease [1, 4]","Stable disease [1, 4]","Progressive disease [1, 5]","Stable disease [1, 5]","Overall response rate [1, 4]","Overall response rate [1, 5]","Tolerability ([1]; advanced pancreatic cancer patients, combined with FOLFIRINOX)","Incidence and rate of adverse events ([1]; compound Ib combined with FOLFIRINOX, versus historical FOLFIRINOX alone)"
much lower,much higher,11.5 mL/min/kg,133%,3910 ng·h/mL,much lower,much higher,0.7 mL/min/kg,67000 ng·h/mL,143%,Cc1cnc(C(=O)c2ccnc3[nH]ccc23)c(NS(=O)(=O)c2ccc(Cl)c(C(F)(F)F)c2)c1 [Compound Ib],32/50 (64%),32/41 (78%),9/50 (18%),17/50 (34%),9/41 (22%),17/41 (41%),15/50 (30%),15/41 (37%),well tolerated,consistent with data reported historically for FOLFIRINOX alone
–,–,71.1 mL/min/kg,22%,111 ng·h/mL,–,–,–,–,–,"O=C(NCC(=O)N1CC[C@H](N[C@H]2CC[C@@](O)(c3ccc(-c4ncccn4)cn3)CC2)C1)c1cccc(C(F)(F)F)c1 [PF-04136309, reference compound]",–,–,–,–,–,–,–,–,–,–
